# Results from patent publication US10947226B2, “Bicyclic pyridone lactams and methods of use thereof” (Genentech, Inc., priority 2016, dated 2021).
# Target: human RIP1 kinase domain (2-375) (Homo sapiens (Human), UniProt Q13546)
# Experiment: RIP1 kinase inhibition assay (biochemical, Transcreener ADP fluorescence polarization)
# Conditions: Ki app (Morrison tight-binding fit); 50 nM enzyme, 50 μM ATP, 2 hours incubation, pH 7.5
# Description: RIP1 Kinase Inhibition Assays (Biochemical Assay)
# The compounds of the present invention were tested for their capacity to inhibit RIP1K activity as described below.
# Enzyme assay: The ability of the receptor interacting protein kinase (RIPK1) to catalyze the hydrolysis of adenosine-5′-triphosphate (ATP) is monitored using the Transcreener ADP (adenosine-5′-diphosphate) assay (BellBrook Labs). Purified human RIP1 kinase domain (2-375) (50 nM) derived from a baculovirus-infected insect cell expression system is incubated with test compounds for 2 hours in 50 mM Hepes buffer (pH 7.5) containing 30 mM MgCl2, 1 mM dithiothreitol, 50 μM ATP, 0.002% Brij-35, and 0.5% dimethyl sulfoxide (DMSO). Reactions are quenched by the addition of 1× Bell Brooks Stop buffer B (20 mM Hepes (ph 7.5), 40 mM ethylenediaminetetraacetic acid and 0.02% Brij-35) containing an additional 12 mM EDTA and 55 μg/mL ADP2 antibody and 4 nM ADP-AlexaFluor® 633 tracer. The tracer bound to the antibody is displaced by the ADP generated during the RIP1K reaction, which causes a decrease in fluorescence polarization that is measured by laser excitation at 633 nm with a FP microplate reader M1000. Fractional activity was plotted against test article concentration. Using Genedata Screener software (Genedata; Basel, Switzerland), the data were fit to the tight-binding apparent inhibition constant (Ki^app) Morrison equation [Williams, J. W. and Morrison, J. F. (1979) The kinetics of reversible tight-binding inhibition. Methods Enzymol 63: 437-67]. The following equation was used to calculate fractional activity and Ki^app: […]
# where [E]T and [I]T are the total concentrations of active enzyme and test article, respectively. […]
# human RIP1 kinase domain (2-375), sequence (Q13546 2-375): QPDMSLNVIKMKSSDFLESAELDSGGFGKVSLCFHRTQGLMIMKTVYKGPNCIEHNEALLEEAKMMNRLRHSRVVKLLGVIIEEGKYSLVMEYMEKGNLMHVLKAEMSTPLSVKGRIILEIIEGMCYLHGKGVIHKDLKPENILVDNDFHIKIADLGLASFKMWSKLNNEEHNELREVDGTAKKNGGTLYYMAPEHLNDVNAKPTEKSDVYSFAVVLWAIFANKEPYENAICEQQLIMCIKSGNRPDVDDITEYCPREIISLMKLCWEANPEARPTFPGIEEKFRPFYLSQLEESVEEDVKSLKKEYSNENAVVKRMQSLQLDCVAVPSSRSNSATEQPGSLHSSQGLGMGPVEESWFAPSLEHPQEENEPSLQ
row,SMILES,Ki
1,"CN1C(=O)[C@@H](NC(=O)c2ncn(Cc3ccccc3)n2)CCc2c1ccc(=O)n2C (single isomer, unassigned) [Example 1]",0.233 µM
2,"CN1C(=O)[C@@H](NC(=O)c2ncn(Cc3ccccc3F)n2)CCc2c1ccc(=O)n2C (single isomer, unassigned) [Example 2]",0.156 µM
3,"CN1C(=O)[C@@H](NC(=O)c2ncn(Cc3ccccc3)n2)CCn2c1cccc2=O (single isomer, unassigned) [Example 3]",0.489 µM
4,"CN1C(=O)[C@@H](NC(=O)c2ncn(Cc3ccccc3F)n2)CCn2c1cccc2=O (single isomer, unassigned) [Example 4]",0.29 µM
5,"CN1C(=O)[C@@H](NC(=O)c2ncn(Cc3ccccc3)n2)CCc2cn(C)c(=O)cc21 (single isomer, unassigned) [Example 5]",0.079 µM
6,"CN1C(=O)[C@@H](NC(=O)c2ncn(Cc3ccccc3F)n2)CCc2cn(C)c(=O)cc21 (single isomer, unassigned) [Example 6]",0.049 µM
7,"CN1C(=O)[C@@H](NC(=O)c2ncn(Cc3ccccc3)n2)CCc2cc(=O)n(C)cc21 (single isomer, unassigned) [Example 7]",0.173 µM
8,"CN1C(=O)[C@H](NC(=O)c2ncn(Cc3ccccc3)n2)CCc2cc(=O)n(C)cc21 (single isomer, unassigned) [Example 8]",> 10 µM
9,"CN1C(=O)[C@@H](NC(=O)c2ncn(Cc3ccccc3F)n2)CCc2cc(=O)n(C)cc21 (single isomer, unassigned) [Example 9]",0.111 µM
10,"CN1C(=O)[C@H](NC(=O)c2ncn(Cc3ccccc3F)n2)CCc2cc(=O)n(C)cc21 (single isomer, unassigned) [Example 10]",> 10 µM
11,"CN1C(=O)[C@@H](NC(=O)c2nc3n(n2)[C@H](c2ccccc2F)CC3)CCc2cc(=O)n(C)cc21 (single isomer, unassigned) [Example 11]",0.231 µM
12,"CN1C(=O)[C@H](NC(=O)c2nc3n(n2)[C@H](c2ccccc2F)CC3)CCc2cc(=O)n(C)cc21 (single isomer, unassigned) [Example 12]",> 10 µM
13,"CN1C(=O)[C@@H](NC(=O)c2nc3n(n2)[C@H](c2ccccc2F)CC3)CCc2cn(CC3CC3)c(=O)cc21 (single isomer, unassigned) [Example 14]",0.056 µM
14,"CN1C(=O)[C@@H](NC(=O)c2ncn(Cc3ccccc3F)n2)CCc2cn(CC3CC3)c(=O)cc21 (single isomer, unassigned) [Example 15]",0.039 µM
15,"CN1C(=O)[C@@H](NC(=O)c2nc3n(n2)[C@H](c2ccccc2F)CC3)CCc2cn(C)c(=O)cc21 [Example 13, (5S)-5-(2-fluorophenyl)-N-[(3S)-1,7-dimethyl-2,8-dioxo-4,5-dihydro-3H-pyrido[4,3-b]azepin-3-yl]-6,7-dihydro-5H-pyrrolo[1,2-b][1,2,4]triazole-2-carboxamide]",0.0811 µM

# The remaining lines, values ahead:
row,Ki,SMILES
1,6.9 µM,"CN1C(=O)[C@H](NC(=O)c2nc3n(n2)[C@H](c2ccccc2F)CC3)CCc2cn(CC3CC3)c(=O)cc21 (single isomer, unassigned) [Example 16]"
2,6.9 µM,"CN1C(=O)[C@H](NC(=O)c2ncn(Cc3ccccc3F)n2)CCc2cn(CC3CC3)c(=O)cc21 (single isomer, unassigned) [Example 17]"
3,0.11 µM,"CCn1cc2c(cc1=O)N(C)C(=O)[C@@H](NC(=O)c1nc3n(n1)[C@H](c1ccccc1F)CC3)CC2 (single isomer, unassigned) [Example 18]"
4,0.11 µM,"CCn1cc2c(cc1=O)N(C)C(=O)[C@@H](NC(=O)c1ncn(Cc3ccccc3F)n1)CC2 (single isomer, unassigned) [Example 19]"
5,> 10 µM,"CCn1cc2c(cc1=O)N(C)C(=O)[C@H](NC(=O)c1nc3n(n1)[C@H](c1ccccc1F)CC3)CC2 (single isomer, unassigned) [Example 20]"
6,> 10 µM,"CCn1cc2c(cc1=O)N(C)C(=O)[C@H](NC(=O)c1ncn(Cc3ccccc3F)n1)CC2 (single isomer, unassigned) [Example 21]"
7,> 10 µM,"CN1C(=O)[C@H](NC(=O)c2ncn(Cc3ccccc3F)n2)CCc2c1ccc(=O)n2C (single isomer, unassigned) [Example 22]"
8,> 10 µM,"CN1C(=O)[C@H](NC(=O)c2ncn(Cc3ccccc3)n2)CCc2c1ccc(=O)n2C (single isomer, unassigned) [Example 23]"
